According to patent US9938279B2, “Method for treating disease or condition susceptible to amelioration by AMPK activators and compounds of formula which are useful to activate AMP-activated protein kinase (AMPK)” (ENERGENESIS BIOMEDICAL CO., LTD, priority 2013, dated 2018):

Assays:
AMPK [1] = test: AMPK activation assay (western blot phospho-AMPK Thr172) in 3T3-L1; type: cell-based, mouse; details: 3T3-L1 cells, 30 min treatment
Procedure: (§1) Effects of compounds on AMPK activation were analyzed in mouse muscle cell C2C12, mouse fibroblast 3T3-L1 and human hepatocyte Hep G2. Those cell lines were cultured in high-glucose Dulbecco's modified Eagle's medium (DMEM) containing 10% fetal bovine serum (FBS), 4 mM L-glutamine, 2 mM sodium pyruvate and 1% penicillin/streptomycin (Invitrogen GibcoBRL, Carlsbad, Calif., USA) at 37° C. under 5% CO2. Cells were plated at 3×10^5 per well (6-well plate). 24 h after plating, cells were treated with indicated compounds for 30 min followed by cell lysis and western blot analysis. Equal amount of protein were separated by SDS-PAGE and then electroblotted on to PVDF membranes. Membranes were blocked with 3% BSA in PBS for 60 min and incubated with anti-phospho-AMPK (Thr172) antibody (1:2,000, Cell signaling), anti-AMPK antibody (1:2,000, Cell signaling), anti-Glut4 antibody (1:1,000, Millipore) or anti-actin antibody (1:5,000; Chemicon International) at 4° C. overnight followed by the corresponding secondary antibody for 1 h at room temperature (RT). Immunoreactive bands were detected by enhanced chemiluminescence (ECL; Pierce, Rockford, Ill., USA) and recorded using Kodakfilm (Rochester, N.Y., USA). The detected signals were scanned and then quantified by using TotalLab Quant software (TotalLab).

AMPK [2] = test: AMPK activation assay (western blot phospho-AMPK Thr172) in Hep G2; type: cell-based, human; details: Hep G2 cells, 30 min treatment
Procedure: as §1

AMPK [3] = test: AMPK activation assay (western blot phospho-AMPK Thr172) in C2C12; type: cell-based, mouse; details: C2C12 cells, 30 min treatment
Procedure: as §1

`O=c1cc[nH]c(=O)[nH]1` [Uracil] was tested, and the “AMPK activation (% to control) 3T3-L1” value (AMPK [1]; 1 microM) was 114 % to control, the “AMPK activation (% to control) 3T3-L1” value (AMPK [1]; 10 microM) was 123 % to control and the “AMPK activation (% to control) 3T3-L1” value (AMPK [1]; 100 microM) was 248 % to control. The “AMPK activation (% to control) 3T3-L1” value (AMPK [1]; 200 microM) was 372 % to control, the “AMPK activation (% to control) Hep G2” value (AMPK [2]; 1 microM) was 118 % to control and the “AMPK activation (% to control) Hep G2” value (AMPK [2]; 10 microM) was 144 % to control. For the same compound, the “AMPK activation (% to control) Hep G2” value (AMPK [2]; 100 microM) was 237 % to control, the “AMPK activation (% to control) Hep G2” value (AMPK [2]; 200 microM) was 359 % to control and the “AMPK activation (% to control) C2C12” value (AMPK [3]; 1 microM) was 105 % to control. For the same compound, the “AMPK activation (% to control) C2C12” value (AMPK [3]; 10 microM) was 109 % to control, the “AMPK activation (% to control) C2C12” value (AMPK [3]; 100 microM) was 264 % to control and the “AMPK activation (% to control) C2C12” value (AMPK [3]; 200 microM) was 358 % to control.

In the case of `Nc1nc(S)c2[nH]cnc2n1` [Example 2-amino-6-mercaptopurine, 2-amino-6-mercaptopurine], the “AMPK activation (% to control) 3T3-L1” value (AMPK [1]; 1 microM) is reported as 105 % to control, the “AMPK activation (% to control) 3T3-L1” value (AMPK [1]; 10 microM) is reported as 119 % to control and the “AMPK activation (% to control) 3T3-L1” value (AMPK [1]; 100 microM) is reported as 251 % to control. The “AMPK activation (% to control) 3T3-L1” value (AMPK [1]; 200 microM) was 277 % to control, the “AMPK activation (% to control) Hep G2” value (AMPK [2]; 1 microM) was 112 % to control and the “AMPK activation (% to control) Hep G2” value (AMPK [2]; 10 microM) was 124 % to control. For the same compound, the “AMPK activation (% to control) Hep G2” value (AMPK [2]; 100 microM) was 209 % to control, the “AMPK activation (% to control) Hep G2” value (AMPK [2]; 200 microM) was 261 % to control and the “AMPK activation (% to control) C2C12” value (AMPK [3]; 1 microM) was 118 % to control. For the same compound, the “AMPK activation (% to control) C2C12” value (AMPK [3]; 10 microM) was 122 % to control, the “AMPK activation (% to control) C2C12” value (AMPK [3]; 100 microM) was 228 % to control and the “AMPK activation (% to control) C2C12” value (AMPK [3]; 200 microM) was 284 % to control.

`CCCNc1nc(O)nc2nc[nH]c12` [Example 2-hydroxy-6-propylaminopurine, 2-hydroxy-6-propylaminopurine] was tested, and the “AMPK activation (% to control) 3T3-L1” value (AMPK [1]; 1 microM) was 109 % to control, the “AMPK activation (% to control) 3T3-L1” value (AMPK [1]; 10 microM) was 129 % to control and the “AMPK activation (% to control) 3T3-L1” value (AMPK [1]; 100 microM) was 233 % to control. The “AMPK activation (% to control) 3T3-L1” value (AMPK [1]; 200 microM) was 361 % to control, the “AMPK activation (% to control) Hep G2” value (AMPK [2]; 1 microM) was 110 % to control and the “AMPK activation (% to control) Hep G2” value (AMPK [2]; 10 microM) was 133 % to control. For the same compound, the “AMPK activation (% to control) Hep G2” value (AMPK [2]; 100 microM) was 270 % to control, the “AMPK activation (% to control) Hep G2” value (AMPK [2]; 200 microM) was 339 % to control and the “AMPK activation (% to control) C2C12” value (AMPK [3]; 1 microM) was 114 % to control. The “AMPK activation (% to control) C2C12” value (AMPK [3]; 10 microM) was 122 % to control, the “AMPK activation (% to control) C2C12” value (AMPK [3]; 100 microM) was 201 % to control and the “AMPK activation (% to control) C2C12” value (AMPK [3]; 200 microM) was 324 % to control.

For `Nc1nc(O)nc2nc[nH]c12` [Example 2-hydroxyadenine, 2-hydroxyadenine], the “AMPK activation (% to control) 3T3-L1” value (AMPK [1]; 1 microM) was 117 % to control, the “AMPK activation (% to control) 3T3-L1” value (AMPK [1]; 10 microM) was 171 % to control and the “AMPK activation (% to control) 3T3-L1” value (AMPK [1]; 100 microM) was 264 % to control. For the same compound, the “AMPK activation (% to control) 3T3-L1” value (AMPK [1]; 200 microM) was 351 % to control, the “AMPK activation (% to control) Hep G2” value (AMPK [2]; 1 microM) was 118 % to control and the “AMPK activation (% to control) Hep G2” value (AMPK [2]; 10 microM) was 143 % to control. For the same compound, the “AMPK activation (% to control) Hep G2” value (AMPK [2]; 100 microM) was 220 % to control, the “AMPK activation (% to control) Hep G2” value (AMPK [2]; 200 microM) was 338 % to control and the “AMPK activation (% to control) C2C12” value (AMPK [3]; 1 microM) was 111 % to control. The “AMPK activation (% to control) C2C12” value (AMPK [3]; 10 microM) was 166 % to control, the “AMPK activation (% to control) C2C12” value (AMPK [3]; 100 microM) was 275 % to control and the “AMPK activation (% to control) C2C12” value (AMPK [3]; 200 microM) was 315 % to control.

With `Cc1nc(O)c2[nH]cnc2n1` [Example 2-methyl-6-hydroxypurine, 2-methyl-6-hydroxypurine] the “AMPK activation (% to control) 3T3-L1” value (AMPK [1]; 1 microM) was 112 % to control, the “AMPK activation (% to control) 3T3-L1” value (AMPK [1]; 10 microM) was 144 % to control and the “AMPK activation (% to control) 3T3-L1” value (AMPK [1]; 100 microM) was 228 % to control. For the same compound, the “AMPK activation (% to control) 3T3-L1” value (AMPK [1]; 200 microM) was 338 % to control, the “AMPK activation (% to control) Hep G2” value (AMPK [2]; 1 microM) was 116 % to control and the “AMPK activation (% to control) Hep G2” value (AMPK [2]; 10 microM) was 162 % to control. The “AMPK activation (% to control) Hep G2” value (AMPK [2]; 100 microM) was 219 % to control, the “AMPK activation (% to control) Hep G2” value (AMPK [2]; 200 microM) was 347 % to control and the “AMPK activation (% to control) C2C12” value (AMPK [3]; 1 microM) was 109 % to control. The “AMPK activation (% to control) C2C12” value (AMPK [3]; 10 microM) was 139 % to control, the “AMPK activation (% to control) C2C12” value (AMPK [3]; 100 microM) was 241 % to control and the “AMPK activation (% to control) C2C12” value (AMPK [3]; 200 microM) was 305 % to control.
